Read-outs that look alike come from different tables or passages of the source.
Legend:
amphetamine = test: Amphetamine antagonism in rats; format: in vivo; settings: rats, p.o., amphetamine 10 mg/kg base i.v.; for ED50: Rattus norvegicus, po, read-out: Amphetamine antag. ED50 p.o.
Procedure: Amphetamine antagonism (ED50 mg/kg i.p.)
(§1) Perspex observation cages without bottom and lid, consisting of 5 sections each measuring 12×25×30 cm.
The test substance is given p.o. in a reasonable dose based on the determined LD50. Two or 24 hours later an intravaneous injection of amphetamine sulphate 13.6 mg/kg (10 mg/kg amphetamine base) is given, after which the rats are placed individually in the cages. The cages are placed on white corrugated paper. Five rats are used for each dose level. Observations are made after 55 minutes and 65 minutes-observation time: 1 minute. The animals are observed for stereotypy (movements of the head, compulsive gnawing). […] If the compound has full antagonistic effect another group of rats is used at a lower dose. […] The result is stated as fractions: 0/5, 1/5, 2/5, 3/5, 4/5 and 5/5, where 0, 1, 2, 3, 4 and 5 indicate the number of rats which have not shown stereotypy at the dose in question. The results are calculated as ED50 in mg/kg.

methylphenidate = test: Methylphenidate antagonism in mice; format: in vivo; settings: for ED50: Mus musculus, ip, 2 h, read-out: MePh antag. ED50 2 hr i.p., mice, test substance i.p., 2 hr before methylphenidate 60 mg/kg s.c.
Procedure: Methylphenidate antagonism (ED50 mg/kg i.p.)
as §1
3×2 mice are used for each dose level. Two or 24 hours after injection of test substance, methylphenidate, 60 mg/kg, is injected s.c. After administration of methylphenidate the mice are placed in the observation cages, 2 in each cage, where they remain for exactly 1 hour. The cages were placed on corrugated paper, the corrugations facing upwards. It is examined whether the mice have been biting the corrugated paper or not. […] If one or more of the control pairs have not been biting, the test has to be repeated on a new set of mice.
The result is stated in fractions: 0/3, 1/3, 2/3 and 3/3 where 0, 1, 2 and 3 are the number of pairs which have not been biting on receipt of the dose in question.

in vivo [1] = settings: iv
[2] = Mouse grid shock (analgesia); format: in vivo; settings: mice, minimal effective dose, in mg/kg
Procedure: The mouse grid consists of a perspex cage with wire grid bottom and a perspex lid, on which is placed a microphone sensitive to the frequency of a mouse squeak. A stimulator with motordriven potentiometer applies a sequence of square wave impulses of continuously increasing milliamperage to the grid. Frequency of impulses 20 cycles/sec., duration 5 msec. Milliamperage is recorded on a digital amperemeter connected to the stimulator. Activation of the microphone by a mouse-squeak cuts off the current and the final milliamperage appears on the meter.
Five mice are used for each dose level. Each mouse serves as its own control.
Prior to the administration of test substance the animals are placed on the grid one at a time, and the pain threshold is determined by increasing the current intensity until the mouse squeaks. The pain threshold may be read on the milliamperemeter. Fifteen minutes and 30 minutes after administration of test substance the mice are tested again and the pain thresholds recorded.
Analgesic effect is present, when the pain threshold is increased over the pre-dosing value (control value). The results are stated as % increase in pain threshold calculated on the basis of the control value.
The registration can also be done as an on-line procedure. In this case the punching instruction and punching cards will be provided automatically and the results will be registered as a minimal effective dose (MED) determined after van der Waerdens X-test.

in vivo [3] = test: in vivo; parameters: species or system rats; settings: for Ratio catalep./Amphet.: catalepsy ED50 / amphetamine antagonism ED50; for ED50: rat, in vivo, po
Procedure: A vertical wire netting (50 cm×49 cm). The meshes (openings) of the netting are square (1 cm×1 cm). The wire diameter is 2 mm.
The animals are labeled and used in groups of five. The test substance is administered orally (p.o) at 4 dose levels selected from the fixed dose scale.
The animals are placed in the middle of the vertical wire netting 60, 120, 180, 240, 300 and 360 minutes after administration of the test compound. The animals are considered cataleptic when they remain immobile during a period of 15 seconds.
This cataleptic reaction is designated +. If the rats are "atonic" and passively slide down the wire mesh they are considered not cataleptic. If the animals climb up and down the wire mesh they are nor cataleptic.
In both situations the designation--is used.

[4] = rats, p.o., strongest effect within first 6 hours, read-out: Catalep. (catalepsy wire mesh, rat, max, ED50)

SMILES | ED50 (amphetamine) | ED50 (methylphenidate) | LD50 (in vivo [1]) | MED Grid Shock [2] | Ratio catalep./Amphet. (in vivo [3]) | ED50 (in vivo [3]; [4]) | Amphetamine antag. ED50 p.o. (amphetamine) | MePh antag. ED50 2 hr i.p. (methylphenidate; mice, test substance i.p., 2 hr before methylphenidate 60 mg/kg s.c., 120 min) | Catalep. (catalepsy wire mesh, rat, max, ED50) (in vivo [3]; rats, p.o., strongest effect within first 6 hours) | ED50 (in vivo [3]; Catalep. (catalepsy wire mesh, rat, max, ED50))
CSc1ccc2c(c1)[C@H](N1CCN(C)CC1)C[C@H]2c1ccc(F)cc1 (relative stereo) [Lu 17-055] | 10 mg/kg | 1.2 mg/kg | 68 mg/kg | 5 | 0.7 | 7.2 mg/kg | – | – | – | –
O[C@H]1CC[C@H](CN2CCN(C3CC(c4ccc(F)cc4)c4ccc(F)cc43)CC2)CC1 (relative stereo) [Lu 17-059] | 28 mg/kg | 4.3 mg/kg | 94 mg/kg | 5 | > 1.4 | > 40 mg/kg | – | – | – | –
OCCN1CCN([C@@H]2C[C@@H](c3ccc(F)cc3)c3cc(F)ccc32)CC1 (relative stereo) [Lu 17-075] | > 40 mg/kg | 6 mg/kg | 80 mg/kg | 2.5 | – | > 40 mg/kg | – | – | – | –
CN1CCN([C@@H]2C[C@@H](c3ccc(F)cc3)c3ccc(Cl)cc32)CC1 (relative stereo) [Lu 17-121] | 10 mg/kg | 2 mg/kg | 68 mg/kg | 0.63 | 0.3 | 3 mg/kg | – | – | – | –
OCCCN1CCN([C@@H]2C[C@@H](c3ccc(F)cc3)c3ccc(Cl)cc32)CC1 (relative stereo) [Lu 17-127] | 0.3 mg/kg | 0.4 mg/kg | 80 mg/kg | 0.31 | 1.7 | 0.5 mg/kg | – | – | – | –
OCCN1CCN([C@@H]2C[C@@H](c3ccccc3)c3ccc(C(F)(F)F)cc32)CC1 (relative stereo) [Lu 18-089] | 5 mg/kg | 2.2 mg/kg | 69 mg/kg | 2.5 | 0.5 | 2.7 mg/kg | – | – | – | –
CN1CCN(C2CC(c3ccc(F)cc3)c3ccc(F)cc32)CC1 (single isomer, unassigned; (+)) [Lu 17-151, (+) 1-Methyl-4-(3-(4'-fluorophenyl)-6-fluoro-1-indanyl) piperazine] | – | – | 113 mg/kg | 0.63 | 2.7 | – | 6.1 mg/kg | 1.0 mg/kg | 16.4 mg/kg | –
CSc1ccc2c(c1)C(N1CCN(CCCO)CC1)CC2c1ccc(F)cc1 (stereo not shown) [Lu 17-068] | 1.8 mg/kg | 0.8 mg/kg | 94 mg/kg | 0.31 | 0.7 | 1.3 mg/kg | – | – | – | –
Cc1ccc2c(c1)C(N1CCN(C(C)C)CC1)CC2c1ccc(F)cc1 (stereo not shown) [Lu 17-069] | 5.6 mg/kg | 0.8 mg/kg | 56 mg/kg | 0.63 | 1.2 | 6.7 mg/kg | – | – | – | –
Fc1ccc(C2CC(N3CCN(CC4CCCCC4)CC3)c3cc(F)ccc32)cc1 (stereo not shown) [Lu 17-100] | > 40 mg/kg | 4 mg/kg | 93 mg/kg | 10 | – | 40 mg/kg | – | – | – | –
CSc1ccc2c(c1)C(N1CCN(C(C)C)CC1)CC2c1ccc(F)cc1 (stereo not shown) [Lu 17-111] | 7.8 mg/kg | 2.3 mg/kg | 69 mg/kg | 1.3 | 0.9 | 7.1 mg/kg | – | – | – | –
CC(C)N1CCN(C2CC(c3ccc(F)cc3)c3ccc(Cl)cc32)CC1 (stereo not shown) [Lu 17-129] | 1.8 mg/kg | 0.8 mg/kg | 80 mg/kg | 5 | 0.4 | 0.8 mg/kg | – | – | – | –
CC(O)CN1CCN(C2CC(c3ccc(F)cc3)c3ccc(F)cc32)CC1 (stereo not shown) [Lu 17-143, 1-(2-hydroxy-1-propyl)-4-(3-(4'-fluorophenyl)-6-fluoro-1-indanyl)piperazine] | 5.4 mg/kg | 1.2 mg/kg | 130 mg/kg | < 1.3 | 3.1 | 16.6 mg/kg | – | – | – | –
COc1ccc2c(c1)C(N1CCN(CCO)CC1)CC2c1ccc(F)cc1 (stereo not shown) [Lu 18-006] | 16.6 mg/kg | 8.6 mg/kg | 113 mg/kg | 5 | 0.7 | 12 mg/kg | – | – | – | –
OCCN1CCN(C2CC(c3ccc(F)cc3)c3ccc(C(F)(F)F)cc32)CC1 (stereo not shown) [Lu 18-012] | 0.16 mg/kg | 0.03 mg/kg | 56 mg/kg | 0.6 | 2 | – | – | – | – | 0.3 mg/kg
CC(C)c1ccc2c(c1)C(N1CCN(CCO)CC1)CC2c1ccc(F)cc1 (stereo not shown) [Lu 18-020] | 9.4 mg/kg | 4.4 mg/kg | 57 mg/kg | 5 | 0.8 | 7.8 mg/kg | – | – | – | –
CN1CCN(C2CC(c3ccc(F)cc3)c3ccc(C(F)(F)F)cc32)CC1 (stereo not shown) [Lu 18-023] | 0.2 mg/kg | 1.1 mg/kg | 94 mg/kg | 1.25 | 2 | 0.4 mg/kg | – | – | – | –
CN1CCN(C2CC(c3ccc(F)cc3)c3ccc(S(C)(=O)=O)cc32)CC1 (stereo not shown) [Lu 18-040] | 12 mg/kg | 8.3 mg/kg | 130 mg/kg | > 20 | 0.8 | 10 mg/kg | – | – | – | –
OCCCN1CCN(C2CC(c3ccc(F)cc3)c3ccc(C(F)(F)F)cc32)CC1 (stereo not shown) [Lu 18-048] | 0.16 mg/kg | 0.12 mg/kg | 57 mg/kg | 1.3 | 0.4 | 0.07 mg/kg | – | – | – | –
CC(C)N1CCN(C2CC(c3ccc(F)cc3)c3ccc(C(F)(F)F)cc32)CC1 (stereo not shown) [Lu 18-050] | 0.22 mg/kg | 0.44 mg/kg | 57 mg/kg | 10 | 2.4 | 0.52 mg/kg | – | – | – | –

— patent US4443448A, “Indane derivatives, pharmaceutical compositions thereof and method of preparation” (priority 1980, dated 1984)
